Source: patent US20240224994A1, “INSECT REPELLANT FORMULATION AND METHOD OF USING SAME” (United Industries Corporation, priority 2021, published 2024)

Test system: Deer Ticks, Ixodes ricinus
Test: Efficacy of nootkatone formulations against ticks on human forearm skin (complete protection time)
Type: in vivo
Conditions: FIG. 1; human skin test
Protocol: The objective of the study was estimate the complete protection time (CPT) of the various repellent formulations against ticks. Complete protection time (CPT) was measured as the length of time from initial application to the First Confirmed Crossing (FCC).
A number of 32 volunteers were selected based on signing of informed consent form and passing the sensitivity test, 24-48 hours before the initiation of the experiment. The volunteers were briefed about the experiment in detail prior to signing the consent form. Test volunteers were instructed to avoid alcohol, tobacco, caffeine, and fragrance products (e.g., perfume, cologne, hair spray, lotion, etc.) at least for 12 hours before, and during the test.
The test substance/positive control (liquid) was applied at 1 ml/600 cm^2±10% deviation. […] The treatment area was calculated by measuring the circumference (cm) of the wrist (B), the circumference (cm) at the elbow-cubital fossa (C) when the arm is extended, and the distance (cm) from the elbow to the wrist (D) The surface area (in cm^2) of skin was calculated by: […]
Fresh ticks were exposed to the treated area one at a time, at regular intervals of 30 minutes until the first crossing or observation were recorded as “not repelled.” The cycle continues until efficacy failure or the end of the study, whichever occurs first. […]

SMILES: OCc1ccccc1 [benzyl alcohol]
- effect of ingredient on CPT of the compositions: effective in prolonging the CPT
